Patent publication US8901276B2, “Peptide reagents and methods for detection of colon dysplasia” (The Regents of the University of Michigan, priority 2010, dated 2014)
Where no end group is shown, it is not given here. The star is where a group is joined. 5‑TAMRA = CN(C)c1ccc2c(-c3ccc(C(=O)*)cc3C(=O)[O-])c3ccc(N(C)C)cc3[o+]c2c1; DEAC = CCN(CC)c1ccc2cc(C(=O)*)c(=O)oc2c1; Cy5.5 = Cy5.5 fluorescent dye; Ahx = NCCCCCC(=O)O

Assays:
colonic adenomas [1] = experiment: In vivo imaging with non-scanning endoscope, FITC-labeled peptides; set-up: species or system CPC; Apc mice; conditions: Non-scanning Endoscopy Results; FITC label; mean ± SD
Source text: Specific binding of the candidate peptides to primary dysplastic colonic epithelial cells were validated on flow cytometry ex vivo and with small animal endoscopy in vivo using FITC-labeled peptides using a non-scanning white light endoscope.

colonic adenomas [2] = experiment: In vivo imaging with multi-spectral scanning fiber endoscope; set-up: species or system CPC; Apc mice; conditions: 100 μM topical, 5 min; for Average T/B: Multi-Spectral Scanning Fiber Endoscopy Results, mean ± SD
Source text: A scanning fiber endoscope system was adapted for fluorescence detection in three channels (RGB) using excitation at 440 (NDHB510APA, Nichia, Tokyo, Japan), 532 (FTEC532-V10TA0, Blue Sky Research, Milpitas, Calif.) and 635 (FMXL635-017TA0B, Blue Sky Research) nm using an RGB coupler (OZ Optics, Ottawa, Canada). The three laser sources are delivered simultaneously into the scanning fiber, and focused to the same point on the illumination plane using a custom lens assembly, as shown in the schematic in FIG. 2A. The laser power coming out of the distal tip of the endoscope is <2 mW for each channel, a level consistent with a non-significant risk (NSR) determination by the U.S. Food and Drug Administration (FDA, 21 CFR 812) for future human clinical studies. The amplitude of the spiral scanner was reduced to achieve a divergence angle of 70 deg (max 100 deg) to minimize noise in the periphery of the image. Fluorescence is collected by a ring of 12 step-index plastic optical fibers (POF) with numerical aperture (N.A.) of 0.63 and outer diameter of 250 μm (Toray Industries Inc, Tokyo, Japan).
The CPC;Apc mice were first imaged with white light using a non-scanning endoscope (Karl Storz Veterinary Endoscopy, Goleta, Calif.) to assess for the presence of colonic adenomas that have a size between ˜0.5 to 4 mm in diameter. Any adenomas were rinsed of debris including stool and mucous, by delivering tap water through a 3 Fr instrument channel. Then, the fluorescent-labeled peptides were delivered topically at a concentration of 100 μM in 1×PBS in a volume of 1 mL to the distal 4 cm of the colon and rectum. The peptides were incubated for 5 minutes and then the unbound peptides were rinsed away with tap water 3 times. The colon was inspected for any residual peptide, and when clean, the colon was insufflated with air and imaged with the multi-spectral scanning fiber endoscope.
Videos collected during endoscopy were exported as avi video files and converted into sequential png images using Apple QuickTime. White light and fluorescence images for each adenoma were analyzed in NIH Image J. The white light image was utilized to draw a region of interest (ROI) around the adenoma or adjacent normal appearing colonic mucosa which was then superimposed onto the fluorescence image. The mean fluorescence intensities were calculated for each ROI, and a target/background (T/B) ratio was calculated for each colonic adenoma and compared to the surrounding normal appearing mucosa.

HT29 cells = experiment: Competitive inhibition assay (bound phage counts); type: cell-based, human
Description: Bound phage counts were performed to observe the competitive inhibition effect of the synthetic candidate heptapeptide with its representative phage counterpart in triplicate. HT29 cells (5×10^6) were detached with enzyme free cell dissociation buffer and blocked with 1% BSA containing PBS for 30 min at 4° C. The cells were washed and incubated with phage (2×10^11) for 15 min. Then, the cells were washed with PBS and immediately incubated with different concentrations of unlabeled peptide ranging from 10 to 200 μM for an additional 15 min. Cells were washed 3× and the bound phages were recovered as described above in bound phage counts. The bound phages were then tittered and counted, and the relative inhibition rate was calculated. The inhibition activity of no-insert WT phage by synthetic candidate peptide and phage with unrelated synthetic control peptide were used as negative controls.

[3] = system: human colonic mucosa sections (normal, dysplasia, adenocarcinoma); experiment: Cy5.5-labeled peptide staining of human colonic mucosa sections; conditions: for sections of adenocarcinoma stained / sections of dysplasia stained: stained/total sections
Description: All specimens were obtained with approval from the University of Michigan Institutional Review Board (IRB). Freshly resected specimens of human colonic mucosa were frozen in OCT and sectioned with 10 μm thickness using Microm-HM-550 Microtome (EquipNet, Inc. Canton, Mass.). The sections were then air dried, washed with PBS 1×, and incubated with the Cy5.5-labeled peptides at a concentration of 10 μM for 15 min at RT. The sections were washed 3× for 1 min in PBS and fixed with 4% paraformaldehyde for 10 min. After fixation, the sections were washed again (1×) and mounted with ProLong Gold reagent with DAPI (Invitrogen, Carlsbad, Calif.). The sections were imaged under a confocal microscope (Leica TCS SP5 Microsystems, Bannockburn, Ill.). Adjacent sections were sent for routine histology. The average intensity from the entire field-of-view of each image was calculated using Matlab (Mathworks, Natick, Mass.).
For the ex-vivo peptide immunohistochemistry, the nonparametric Kruskal-Wallis test was used to determine if observed differences are statistically significant among all three pathological classifications. The nonparametric Mann-Whitney test was used for comparisons between two independent samples, and differences with p<0.05 were considered significant.

[4] = system: colonic dysplasia (adenomas); experiment: In vivo NIR fluorescence endoscopic imaging; set-up: species or system CPC;Apc mice; conditions: for fluorescence signal on in vivo NIR image: 100 μM topical, 5 min; for average T/B ratio: adenoma/adjacent normal ratio as defined
Source text: Anesthesia was induced and maintained with inhaled isofluorane mixed with oxygen via a nose cone at a dose of 4% and 2% at a flow rate 0.5 liter/min, respectively. Prior to peptide administration, the colon of each mouse was cleaned with a tap water lavage to remove debris. The conventional white light endoscope was used first with a color camera to identify the presence of adenomas. The colon was then rinsed with water until all of the visible mucous was removed. The Cy5.5-labeled peptides were then delivered at a concentration of 100 μM in 1×PBS containing 2.5% DMSO […] through the instrument channel. The peptides were allowed to incubate for 5 minutes, and then the colon was cleansed 3 times with a tap water to remove any unbound peptide. Prior to imaging, the colon was inspected for residual peptide solution, and when clean, the colon was insufflated with air for imaging. Fluorescence images were collected using Axiovision 4.8.1 software.
Images collected during endoscopy were recorded as .zvi files and converted into .tiff images using Axiovision Lite software. Consecutive white light and fluorescence images for each adenoma were analyzed. Regions of interest (ROI) around the adenoma and adjacent normal-appearing mucosa were defined on the color and fluorescence images using Labview®. The white light image was utilized to draw an ROI around the adenoma or adjacent normal appearing colonic mucosa which was then superimposed onto the fluorescent image. Mean gray scale values were calculated for each ROI, and an adenoma/normal colon, or a T/B ratio, value was then calculated for each adenoma. The mean fluorescence intensities were calculated from each ROI to determine the ratio of the average intensities for the adenomas to that from adjacent normal-appearing mucosa, or T/B ratio.
Two-tailed independent samples t-tests (significance level at α=0.05) were used to determine statistical significance between the T/B ratio for the QPI-Cy5.5 and YTT-Cy5.5 peptides binding to colonic adenomas in the CPC;Apc mice. All statistical computations were processed either using statistical software (SPSS15.0.; SPSS, Chicago, Ill.) or Minitab (Minitab Inc. State College, Pa.).

## AKPGYLS-FITC: AKPGYLS labeled with 5′-FITC at the C-terminus via GGGSK linker (not fully specified; GGGSK linker, FITC)
Colonic adenomas [1]
  Average T/B: 1.53 ± 0.48

## ALTPTPP-FITC: ALTPTPP labeled with 5′-FITC at the C-terminus via GGGSK linker (not fully specified; GGGSK linker, FITC)
Colonic adenomas [1]
  Average T/B: 1.19 ± 0.18

## ANYPREP-FITC: ANYPREP labeled with 5′-FITC at the C-terminus via GGGSK linker (not fully specified; GGGSK linker, FITC)
Colonic adenomas [1]
  Average T/B: 0.94 ± 0.11

## ATTVPAS-FITC: ATTVPAS labeled with 5′-FITC at the C-terminus via GGGSK linker (not fully specified; GGGSK linker, FITC)
Colonic adenomas [1]
  Average T/B: 1.06 ± 0.33

## GGGAGGG-FITC: FITC-labeled GGGAGGG control peptide; probably the same as FITC-Control peptide 2 (also: FITC label, site not given here) [reference compound]
Colonic adenomas [1]
  Average T/B: 1.05 ± 0.05

## GGGAGGGAGGGK (5-TAMRA)-NH2 (GGGAGGGAGGGK(5‑TAMRA)-NH2; N-terminus assumed; SMILES C[C@H](NC(=O)CNC(=O)CNC(=O)CN)C(=O)NCC(=O)NCC(=O)NCC(=O)N[C@@H](C)C(=O)NCC(=O)NCC(=O)NCC(=O)N[C@@H](CCCCNC(=O)c1ccc(-c2c3ccc(N(C)C)cc3[o+]c3cc(N(C)C)ccc23)c(C(=O)[O-])c1)C(N)=O) [GGGAGGG-TAMRA, reference compound]
Colonic adenomas [2]
  binding to colonic dysplasia/adenomas on fluorescence images: minimal signal
  Average T/B: 1.32±0.10

## GGGAGGGAGGGK (DEAC)-NH2 (GGGAGGGAGGGK(DEAC)-NH2; N-terminus assumed; SMILES CCN(CC)c1ccc2cc(C(=O)NCCCC[C@H](NC(=O)CNC(=O)CNC(=O)CNC(=O)[C@H](C)NC(=O)CNC(=O)CNC(=O)CNC(=O)[C@H](C)NC(=O)CNC(=O)CNC(=O)CN)C(N)=O)c(=O)oc2c1) [GGGAGGG-DEAC, reference compound]
Colonic adenomas [2]
  binding to colonic dysplasia/adenomas on fluorescence images: minimal signal
  Average T/B: 1.19±0.09

## KCCFPAQ [Peptide 2, heptapeptide from M13 phage display]
HT29 cells; HT29, 200 μM unlabeled KCCFPAQ peptide
  bound KCCFPAQ phage count: 3.8×10^4±6.6×10^3
HT29 cells; addition of KCCFPAQ peptide
  inhibition of WT phage binding: did not inhibit
HT29 cells; peptide concentration above ˜75 μM
  rate of inhibition at saturation: > 98%
HT29 cells; up to 200 μM unlabeled peptide
  inhibition of KCCFPAQ phage binding to HT29 cells: in a dose-dependent manner

## LTTHYKL-CF633: LTTHYKL labeled with CF633 (also: CF633 label, place not given here)
Colonic adenomas [2]
  binding to colonic dysplasia/adenomas on fluorescence images: more subtle

## LTTHYKL-FITC: LTTHYKL labeled with 5′-FITC at the C-terminus via GGGSK linker (not fully specified; GGGSK linker, FITC)
Colonic adenomas [1]
  Average T/B: 1.50 ± 0.73

## NLVNLLP-FITC: NLVNLLP labeled with 5′-FITC at the C-terminus via GGGSK linker (not fully specified; GGGSK linker, FITC)
Colonic adenomas [1]
  Average T/B: 0.99 ± 0.06

## QPI-Cy5.5: QPIHPNNM conjugated with Cy5.5 on the N-terminus via an amino-hexanoic acid linker ({Cy5.5-Ahx}-QPIHPNNM; not fully specified)
[3]; 10 μM, 15 min, RT
  staining of dysplasia and adenocarcinoma: consistently stained
  staining of normal colonic mucosa: did not stain any of the 7 sections
[3]; 10 μM, 15 min, RT, listed as QPI-CY5.5
  staining of normal colonic mucosa: no binding
[3]; adenocarcinoma
  T/B ratio QPI-Cy5.5 in comparison to YTT-Cy5.5: 2.9
  intensity ratio relative to normal colonic mucosa: 6.5
  mean NIR fluorescence intensity: 9.8±2.4 AU
[3]; dysplasia
  T/B ratio QPI-Cy5.5 in comparison to YTT-Cy5.5: 26.7
  intensity ratio relative to normal colonic mucosa: 7.1
  mean NIR fluorescence intensity: 10.7±3.3 AU
[3]; normal
  mean NIR fluorescence intensity: 1.5±1.0 AU
[3]; normal mucosa
  T/B ratio QPI-Cy5.5 in comparison to YTT-Cy5.5: 1.8
[3]
  sections of adenocarcinoma stained: 8/10
  sections of dysplasia stained: 6/8
[4]
  fluorescence signal on in vivo NIR image: significant contrast enhancement
  average T/B ratio: 3.42±1.30

## YTTNKH [YTT-Cy5.5, reference compound]
[3]; 10 μM, 15 min, RT
  staining of any specimen (normal, dysplasia, adenocarcinoma): did not stain any of the specimens
  staining of normal colonic mucosa: did not stain
[3]
  sections of adenocarcinoma stained: 5/10
  sections of dysplasia stained: did not stain
[4]
  fluorescence signal on in vivo NIR image: negligible signal
  average T/B ratio: 1.88±0.38
